Data from ChEMBL document CHEMBL1134077, “Synthesis of potent and selective dopamine D(4) antagonists as candidate radioligands” (Bioorg Med Chem Lett, 2001).

Experiments:
D(2) dopamine receptor = D(2) dopamine receptor (Rattus norvegicus, UniProt P61169); assay: In vitro binding affinity to rat Dopamine receptor D2 measured by displacement of the radioligand [3H]spiperone
[1] = molecular target: 5-hydroxytryptamine receptor 2A (Homo sapiens, UniProt P28223); assay: Binding affinity to cloned human 5-hydroxytryptamine 2A receptor
Chain of 5-hydroxytryptamine receptor 2A (P28223 whole entry): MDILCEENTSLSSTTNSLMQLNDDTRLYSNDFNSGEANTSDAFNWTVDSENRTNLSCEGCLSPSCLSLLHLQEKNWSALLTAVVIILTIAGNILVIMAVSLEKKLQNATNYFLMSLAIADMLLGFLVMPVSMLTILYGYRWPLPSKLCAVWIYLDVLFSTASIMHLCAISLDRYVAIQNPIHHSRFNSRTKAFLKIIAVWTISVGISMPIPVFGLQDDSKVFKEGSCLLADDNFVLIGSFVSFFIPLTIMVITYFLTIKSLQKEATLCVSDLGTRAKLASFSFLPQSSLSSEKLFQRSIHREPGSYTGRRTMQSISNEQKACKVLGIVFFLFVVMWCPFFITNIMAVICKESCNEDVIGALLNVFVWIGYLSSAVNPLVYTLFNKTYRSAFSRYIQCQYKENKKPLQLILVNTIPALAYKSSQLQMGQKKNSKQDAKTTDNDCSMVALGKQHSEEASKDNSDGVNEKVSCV

D(4) dopamine receptor = molecular target: T1, D(4) dopamine receptor (Rattus norvegicus, UniProt P30729); assay: In vitro binding affinity to rat Dopamine receptor D4 measured by displacement of the radioligand [3H]spiperone
T1 sequence (P30729 whole entry): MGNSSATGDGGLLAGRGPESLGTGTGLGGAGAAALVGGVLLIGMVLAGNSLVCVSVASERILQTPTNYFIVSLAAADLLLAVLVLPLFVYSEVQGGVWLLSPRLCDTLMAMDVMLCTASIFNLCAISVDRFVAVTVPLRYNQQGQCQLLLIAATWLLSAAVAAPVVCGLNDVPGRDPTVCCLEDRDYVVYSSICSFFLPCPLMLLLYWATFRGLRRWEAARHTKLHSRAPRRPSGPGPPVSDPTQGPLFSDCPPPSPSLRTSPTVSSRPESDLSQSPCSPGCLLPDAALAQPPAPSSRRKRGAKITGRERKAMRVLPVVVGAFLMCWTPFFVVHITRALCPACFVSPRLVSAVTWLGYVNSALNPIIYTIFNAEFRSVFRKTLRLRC

[2] = molecular target: Kappa-type opioid receptor (Homo sapiens, UniProt P41145); assay: Binding affinity to cloned Opioid receptor kappa 1
Chain of Kappa-type opioid receptor (P41145 whole entry): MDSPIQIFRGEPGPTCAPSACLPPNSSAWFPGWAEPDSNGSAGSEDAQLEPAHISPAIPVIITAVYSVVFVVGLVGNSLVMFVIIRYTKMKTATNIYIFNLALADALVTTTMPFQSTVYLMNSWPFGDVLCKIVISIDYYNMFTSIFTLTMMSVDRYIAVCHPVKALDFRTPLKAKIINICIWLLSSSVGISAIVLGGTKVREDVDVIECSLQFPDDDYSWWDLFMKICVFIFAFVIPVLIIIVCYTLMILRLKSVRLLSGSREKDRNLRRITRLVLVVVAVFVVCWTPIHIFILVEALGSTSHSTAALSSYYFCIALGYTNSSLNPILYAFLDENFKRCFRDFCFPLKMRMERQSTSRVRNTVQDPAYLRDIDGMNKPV

[3] = molecular target: Muscarinic acetylcholine receptor M1 (Homo sapiens, UniProt P11229); assay: (§1) Binding affinity to cloned Muscarinic acetylcholine receptor M1
[4] = molecular target: T2, 5-hydroxytryptamine receptor 1D (Homo sapiens, UniProt P28221); assay: Binding affinity to cloned human 5-hydroxytryptamine 1D receptor
T2 sequence (P28221 whole entry): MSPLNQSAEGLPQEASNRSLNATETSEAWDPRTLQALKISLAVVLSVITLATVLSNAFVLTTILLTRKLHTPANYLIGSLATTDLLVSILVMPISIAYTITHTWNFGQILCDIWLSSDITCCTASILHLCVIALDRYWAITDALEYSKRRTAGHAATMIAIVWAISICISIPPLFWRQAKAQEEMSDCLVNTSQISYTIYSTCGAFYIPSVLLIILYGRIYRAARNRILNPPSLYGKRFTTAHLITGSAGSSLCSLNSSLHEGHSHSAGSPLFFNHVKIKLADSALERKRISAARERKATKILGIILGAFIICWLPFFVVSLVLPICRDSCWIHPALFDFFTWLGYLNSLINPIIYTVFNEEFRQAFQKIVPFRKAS

[5] = molecular target: T3, Muscarinic acetylcholine receptor M2 (Homo sapiens, UniProt P08172); assay: Binding affinity to cloned Muscarinic acetylcholine receptor M2
T3 sequence (P08172 whole entry): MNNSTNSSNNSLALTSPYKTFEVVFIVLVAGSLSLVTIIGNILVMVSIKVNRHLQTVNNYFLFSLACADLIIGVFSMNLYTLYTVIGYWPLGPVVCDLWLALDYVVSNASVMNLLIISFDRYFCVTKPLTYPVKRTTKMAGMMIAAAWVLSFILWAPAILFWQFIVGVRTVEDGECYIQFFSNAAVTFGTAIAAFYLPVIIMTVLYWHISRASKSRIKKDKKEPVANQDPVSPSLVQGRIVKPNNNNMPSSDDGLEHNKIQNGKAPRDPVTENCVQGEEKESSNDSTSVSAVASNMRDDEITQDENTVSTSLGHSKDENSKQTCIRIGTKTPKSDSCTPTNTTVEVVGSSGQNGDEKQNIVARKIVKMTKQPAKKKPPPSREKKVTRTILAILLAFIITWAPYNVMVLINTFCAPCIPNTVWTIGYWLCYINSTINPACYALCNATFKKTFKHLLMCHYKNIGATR

[6] = molecular target: T4, Muscarinic acetylcholine receptor M1 (Homo sapiens, UniProt P11229); assay: as §1; remark: listed apart in the source
T4 sequence (P11229 whole entry): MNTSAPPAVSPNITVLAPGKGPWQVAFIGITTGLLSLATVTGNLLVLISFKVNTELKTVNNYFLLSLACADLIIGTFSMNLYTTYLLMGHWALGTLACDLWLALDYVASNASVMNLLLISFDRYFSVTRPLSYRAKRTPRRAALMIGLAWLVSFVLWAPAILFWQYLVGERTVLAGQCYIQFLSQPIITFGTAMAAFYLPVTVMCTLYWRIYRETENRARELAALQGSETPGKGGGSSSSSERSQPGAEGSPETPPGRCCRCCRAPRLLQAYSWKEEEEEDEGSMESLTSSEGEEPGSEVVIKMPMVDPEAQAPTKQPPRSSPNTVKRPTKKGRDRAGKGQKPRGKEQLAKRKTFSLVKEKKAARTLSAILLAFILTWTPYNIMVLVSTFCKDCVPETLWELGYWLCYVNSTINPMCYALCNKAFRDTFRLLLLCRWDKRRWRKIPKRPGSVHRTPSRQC

[7] = molecular target: T2, 5-hydroxytryptamine receptor 1D; assay: In vitro binding affinity to human 5-hydroxytryptamine 1D receptor

Chain of D(2) dopamine receptor (P61169 whole entry): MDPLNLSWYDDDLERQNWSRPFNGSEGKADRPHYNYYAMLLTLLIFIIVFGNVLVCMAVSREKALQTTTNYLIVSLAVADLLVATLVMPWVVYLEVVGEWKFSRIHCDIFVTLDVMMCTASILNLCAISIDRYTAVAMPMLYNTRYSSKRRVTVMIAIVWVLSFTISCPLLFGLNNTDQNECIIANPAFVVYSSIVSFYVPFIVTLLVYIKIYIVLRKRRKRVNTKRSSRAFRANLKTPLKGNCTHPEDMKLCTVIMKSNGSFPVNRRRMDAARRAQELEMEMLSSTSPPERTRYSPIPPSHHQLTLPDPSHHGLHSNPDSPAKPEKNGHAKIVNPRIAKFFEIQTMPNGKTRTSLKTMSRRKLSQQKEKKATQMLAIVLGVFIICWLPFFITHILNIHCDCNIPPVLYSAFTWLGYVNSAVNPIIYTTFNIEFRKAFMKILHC

SMILES	Ki (D(2) dopamine receptor) [µM]	Ki [1] [µM]	Ki (D(4) dopamine receptor) [µM]	Ki [2] [µM]	Ki [4] [µM]	Ki [5] [µM]	Ki [6] [µM]	Ki [3] [µM]	Ki [7] [µM]
Fc1ccccc1N1CCN(Cc2c[nH]c3ncccc23)CC1	> 10	0.242	0.0033	> 10	> 10	> 10	–	> 10	–
CSc1ccc(N2CCN(Cc3c[nH]c4ncccc34)CC2)cc1	> 10	> 10	0.0047	> 10	–	> 10	–	> 10	> 10
CCCc1ccc(N2CCN(Cc3c[nH]c4ncccc34)CC2)cc1	> 10	> 10	0.0067	> 10	> 10	> 10	> 10	–	–
COc1ccccc1N1CCN(Cc2c[nH]c3ncccc23)CC1	0.438	2.31	0.0014	> 10	–	> 10	–	> 10	> 10

Second part, led by results:

Ki (D(2) dopamine receptor) [µM]	Ki [1] [µM]	Ki (D(4) dopamine receptor) [µM]	Ki [2] [µM]	Ki [4] [µM]	Ki [5] [µM]	Ki [6] [µM]	SMILES	Ki [3] [µM]	Ki [7] [µM]
> 10	0.627	0.005	> 10	> 10	> 10	> 10	CCc1ccc(N2CCN(Cc3c[nH]c4ncccc34)CC2)cc1	–	–
> 10	> 10	0.0036	> 10	–	> 10	–	COc1ccc(N2CCN(Cc3c[nH]c4ncccc34)CC2)cc1	> 10	> 10
> 10	1.93	0.148	> 10	–	> 10	> 10	c1ccc(-c2ccc(N3CCN(Cc4c[nH]c5ncccc45)CC3)cc2)cc1	–	> 10
> 10	0.232	0.0023	> 10	> 10	> 10	–	Fc1ccc(N2CCN(Cc3c[nH]c4ncccc34)CC2)cc1	> 10	–
> 10	0.509	0.0028	> 10	> 10	> 10	> 10	C=Cc1ccc(N2CCN(Cc3c[nH]c4ncccc34)CC2)cc1	–	–
